The target of the test is Human factor D (Homo sapiens (Human), UniProt P00746). It counts as biochemical.
Sequence of Human factor D (P00746 26-253 limits assumed): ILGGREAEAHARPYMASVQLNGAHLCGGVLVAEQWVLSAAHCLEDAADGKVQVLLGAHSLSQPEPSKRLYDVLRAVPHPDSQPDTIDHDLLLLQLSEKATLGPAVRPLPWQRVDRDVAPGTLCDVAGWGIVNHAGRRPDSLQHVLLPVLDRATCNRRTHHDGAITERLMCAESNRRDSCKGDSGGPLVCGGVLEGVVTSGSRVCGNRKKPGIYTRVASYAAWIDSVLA
For `CC(=O)c1cn(CC(=O)N2C[C@H](F)C[C@H]2C(=O)NCc2cccc(Cl)c2F)c2cc(P(=O)(O)OCOC(=O)C(C)(C)C)ccc12` [Compound 28, ((3-acetyl-1-(2-((2S,4R)-2-(3-chloro-2-fluorobenzylcarbamoyl)-4-fluoropyrrolidin-1-yl)-2-oxoethyl)-1H-indol-6-yl)(hydroxy)phosphoryloxy) methyl pivalate], the IC50 (as a rule, the midpoint of a concentration-inhibition curve) was less than 1 µM.

As to `CC(=O)c1cn(CC(=O)N2C[C@H](F)C[C@H]2C(=O)NCc2cccc(Cl)c2F)c2cc(P(=O)(O)OCC(F)(F)F)ccc12` [Compound 29, 2,2,2-trifluoroethyl hydrogen 3-acetyl-1-(2-((2S,4R)-2-(3-chloro-2-fluorobenzylcarbamoyl)-4-fluoropyrrolidin-1-yl)-2-oxoethyl)-1H-indol-6-ylphosphonate], the 50% inhibitory concentration (IC50) was less than 1 µM. The compound `CCOP(=O)(OCC)c1cc2c(cc1F)c(C(C)=O)cn2CC(=O)N1C[C@H](F)C[C@H]1C(=O)NCc1cccc(Cl)c1F` [Compound 30, diethyl 3-acetyl-1-(2-((2S,4R)-2-(3-chloro-2-fluorobenzylcarbamoyl)-4-fluoropyrrolidin-1-yl)-2-oxoethyl)-5-fluoro-1H-indol-6-ylphosphonate] had an IC50 of less than 1 µM. Compound `CC(=O)c1cn(CC(=O)N2C[C@H](F)C[C@H]2C(=O)NCc2cccc(Cl)c2F)c2cc(P(=O)(O)O)c(F)cc12` [Compound 31, 3-acetyl-1-(2-((2S,4R)-2-(3-chloro-2-fluorobenzylcarbamoyl)-4-fluoropyrrolidin-1-yl)-2-oxoethyl)-5-fluoro-1H-indol-6-ylphosphonic acid] displayed an IC50 of less than 1 µM.

Take `O=C(NCc1cccc(Cl)c1F)[C@@H]1C[C@@H](F)CN1C(=O)Cn1cc(C(=O)C(F)(F)F)c2ccc(P(=O)(O)O)cc21` [Compound 32, 1-(2-((2S,4R)-2-(3-chloro-2-fluorobenzylcarbamoyl)-4-fluoropyrrolidin-1-yl)-2-oxoethyl)-3-(2,2,2-trifluoroacetyl)-1H-indol-6-ylphosphonic acid]: the IC50 is less than 1 µM.

The record behind these values is US9663543B2 (priority 2014, dated 2017).
